# From PubChem BioAssay AID196 (DTP/NCI, 2004)
# Several values for one entry are separate records, joined by “and”; a condition that tells them apart may be missing. Equal values may be shown once. Toxic doses and inconclusive results are not listed.
# Test system: BDF1 mice, intracerebral B16 melanoma, median survival T/C
# Assay: NCI In Vivo Anticancer Drug Screen. Data for tumor model B16 Melanoma (intracerebral) in B6D2F1 (BDF1) mice
# Settings: endpoint: median survival time, higher = longer survival
# Experimental: The antitumor activity of compounds was measured in mice bearing transplantable tumors. Survival or tumor size were measured and the results are expressed as the measurement made in the treated group (T) divided by the measurement made in the vehicle treated control group (C). The tumor model used in this assay is B16 Melanoma (intracerebral) in B6D2F1 (BDF1) mice
# [1] = dose: 16.0 mg/kg/injection, schedule: Q01DX009 (ip), vehicle: saline with Tween-80
# [2] = dose: 17.8 mg/kg/injection, schedule: Q01DX001 (ip), vehicle: Klucel (hydroxypropylcellulose) (HPC)
# [3] = dose: 40.0 mg/kg/injection, schedule: Q01DX001 (ip), vehicle: Klucel (hydroxypropylcellulose) (HPC)
# [4] = dose: 8.0 mg/kg/injection, schedule: Q01DX009 (ip), vehicle: Klucel (hydroxypropylcellulose) (HPC)
# [5] = dose: 16.0 mg/kg/injection, schedule: Q01DX009 (ip), vehicle: Klucel (hydroxypropylcellulose) (HPC)
# [6] = dose: 32.0 mg/kg/injection, schedule: Q01DX009 (ip), vehicle: Klucel (hydroxypropylcellulose) (HPC)
structure (smiles),measurement,setting,value
CN(C)c1nc(N(C)C)nc(N(C)C)n1,T/C,"dose: 100.0 mg/kg/injection, schedule: Q01DX005 (ip), vehicle: saline with Tween-80",91 % of control
COc1cccc2c1C(=O)c1c(O)c3c(c(O)c1C2=O)C[C@@](O)(C(C)=O)C[C@@H]3OC1CC(N)C(O)C(C)O1 (some centres not stated),T/C,"dose: 0.13 mg/kg/injection, schedule: Q01DX009 (ip), vehicle: saline",104 % of control
same,T/C,"dose: 0.25 mg/kg/injection, schedule: Q01DX009 (ip), vehicle: saline",116 % of control and 87 % of control and 109 % of control
same,T/C,"dose: 0.25 mg/kg/injection, schedule: Q03HX008 (ip), vehicle: saline",92 % of control
same,T/C,"dose: 0.5 mg/kg/injection, schedule: Q01DX009 (ip), vehicle: saline",91 % of control and 104 % of control and 109 % of control
same,T/C,"dose: 0.5 mg/kg/injection, schedule: Q01DX009 (ip), vehicle: water",90 % of control
same,T/C,"dose: 0.5 mg/kg/injection, schedule: Q03HX008 (ip), vehicle: saline",100 % of control
same,T/C,"dose: 1.0 mg/kg/injection, schedule: Q01DX009 (ip), vehicle: saline",100 % of control
same,T/C,"dose: 1.0 mg/kg/injection, schedule: Q01DX009 (ip), vehicle: water",109 % of control
same,T/C,"dose: 1.0 mg/kg/injection, schedule: Q03HX008 (ip), vehicle: saline",100 % of control
same,T/C,"dose: 2.0 mg/kg/injection, schedule: Q01DX009 (ip), vehicle: saline",100 % of control
same,T/C,"dose: 2.0 mg/kg/injection, schedule: Q01DX009 (ip), vehicle: water",100 % of control
COc1cc(NS(C)(=O)=O)ccc1Nc1c2ccccc2nc2ccccc12,T/C,"dose: 0.5 mg/kg/injection, schedule: Q01DX009 (ip), vehicle: distilled water + Tween-80",88 % of control
same,T/C,"dose: 1.0 mg/kg/injection, schedule: Q01DX009 (ip), vehicle: distilled water + Tween-80",116 % of control
same,T/C,"dose: 2.0 mg/kg/injection, schedule: Q01DX009 (ip), vehicle: distilled water + Tween-80",109 % of control
same,T/C,"dose: 4.0 mg/kg/injection, schedule: Q01DX009 (ip), vehicle: distilled water + Tween-80",101 % of control
same,T/C,"dose: 5.0 mg/kg/injection, schedule: Q04DX003 (ip), vehicle: Klucel (hydroxypropylcellulose) (HPC)",94 % of control
same,T/C,"dose: 5.0 mg/kg/injection, schedule: Q04DX003 (ip), vehicle: saline",108 % of control
same,T/C,"dose: 8.0 mg/kg/injection, schedule: Q01DX009 (ip), vehicle: distilled water + Tween-80",97 % of control
same,T/C,"dose: 10.0 mg/kg/injection, schedule: Q04DX003 (ip), vehicle: saline",112 % of control
O=NN(CCCl)C(=O)NC1OC(CO)C(O)C(O)C1O (configuration not stated),T/C,"dose: 0.31 mg/kg/injection, schedule: Q01DX009 (ip), vehicle: saline",112 % of control
same,T/C,"dose: 0.62 mg/kg/injection, schedule: Q01DX009 (ip), vehicle: saline",109 % of control
same,T/C,"dose: 1.25 mg/kg/injection, schedule: Q01DX009 (ip), vehicle: saline",115 % of control
same,T/C,"dose: 2.5 mg/kg/injection, schedule: Q01DX009 (ip), vehicle: saline",106 % of control
same,T/C,"dose: 5.0 mg/kg/injection, schedule: Q01DX009 (ip), vehicle: saline",122 % of control
O=NN(CCCl)C(=O)NC1CCC(=O)NC1=O (configuration not stated),T/C,"dose: 0.5 mg/kg/injection, schedule: Q01DX009 (ip), vehicle: saline with Tween-80",108 % of control
same,T/C,"dose: 2.0 mg/kg/injection, schedule: Q01DX009 (ip), vehicle: saline with Tween-80",153 % of control
same,T/C,"dose: 4.0 mg/kg/injection, schedule: Q01DX009 (ip), vehicle: saline with Tween-80",202 % of control
same,T/C,"dose: 4.32 mg/kg/injection, schedule: Q01DX001 (ip), vehicle: Klucel (hydroxypropylcellulose) (HPC)",111 % of control
same,T/C,"dose: 6.48 mg/kg/injection, schedule: Q01DX001 (ip), vehicle: other",120 % of control
same,T/C,"dose: 7.2 mg/kg/injection, schedule: Q01DX001 (ip), vehicle: Klucel (hydroxypropylcellulose) (HPC)",122 % of control
same,T/C,"dose: 8.0 mg/kg/injection, schedule: Q01DX009 (ip), vehicle: saline with Tween-80",337 % of control
same,T/C,"dose: 11.9 mg/kg/injection, schedule: Q01DX001 (ip), vehicle: Klucel (hydroxypropylcellulose) (HPC)",172 % of control
same,T/C,"dose: 12.0 mg/kg/injection, schedule: Q01DX001 (ip), vehicle: Klucel (hydroxypropylcellulose) (HPC)",150 % of control
same,T/C,[1],89 % of control
same,T/C,[2],201 % of control
same,T/C,"dose: 18.0 mg/kg/injection, schedule: Q01DX001 (ip), vehicle: other",338 % of control
same,T/C,"dose: 20.0 mg/kg/injection, schedule: Q01DX001 (ip), vehicle: Klucel (hydroxypropylcellulose) (HPC)",204 % of control
same,T/C,"dose: 26.7 mg/kg/injection, schedule: Q01DX001 (ip), vehicle: Klucel (hydroxypropylcellulose) (HPC)",187 % of control
same,T/C,[3],120 % of control
O=NN(CCCl)C(=O)NC1CCCCC1,T/C,"dose: 2.0 mg/kg/injection, schedule: Q01DX009 (ip), vehicle: Klucel (hydroxypropylcellulose) (HPC)",116 % of control
same,T/C,"dose: 2.4 mg/kg/injection, schedule: Q01DX001 (ip), vehicle: other",116 % of control
same,T/C,"dose: 4.0 mg/kg/injection, schedule: Q01DX009 (ip), vehicle: other",124 % of control
same,T/C,"dose: 4.7 mg/kg/injection, schedule: Q01DX001 (ip), vehicle: other",100 % of control
same,T/C,"dose: 7.5 mg/kg/injection, schedule: Q01DX009 (ip), vehicle: saline",118 % of control
same,T/C,[4],161 % of control
same,T/C,"dose: 8.0 mg/kg/injection, schedule: Q04DX003 (ip), vehicle: Klucel (hydroxypropylcellulose) (HPC)",102 % of control
same,T/C,"dose: 9.5 mg/kg/injection, schedule: Q01DX001 (ip), vehicle: other",121 % of control
same,T/C,"dose: 13.0 mg/kg/injection, schedule: Q01DX001 (ip), vehicle: other",118 % of control
same,T/C,"dose: 15.0 mg/kg/injection, schedule: Q01DX009 (ip), vehicle: saline",150 % of control
same,T/C,[5],154 % of control
same,T/C,"dose: 16.0 mg/kg/injection, schedule: Q01DX009 (ip), vehicle: other",118 % of control
same,T/C,[1],213 % of control
same,T/C,"dose: 16.0 mg/kg/injection, schedule: Q04DX003 (ip), vehicle: Klucel (hydroxypropylcellulose) (HPC)",102 % of control
same,T/C,[2],113 % of control
same,T/C,"dose: 18.9 mg/kg/injection, schedule: Q01DX001 (ip), vehicle: other",123 % of control
same,T/C,"dose: 30.0 mg/kg/injection, schedule: Q01DX009 (ip), vehicle: saline",290 % of control
same,T/C,[6],95 % of control
same,T/C,"dose: 32.0 mg/kg/injection, schedule: Q04DX003 (ip), vehicle: saline",220 % of control
same,T/C,"dose: 36.0 mg/kg/injection, schedule: Q01DX001 (ip), vehicle: Klucel (hydroxypropylcellulose) (HPC)",224 % of control
same,T/C,"dose: 36.0 mg/kg/injection, schedule: Q01DX001 (ip), vehicle: other",338 % of control
same,T/C,"dose: 37.8 mg/kg/injection, schedule: Q01DX001 (ip), vehicle: other",173 % of control
same,T/C,[3],150 % of control
same,T/C,"dose: 60.0 mg/kg/injection, schedule: Q01DX001 (ip), vehicle: Klucel (hydroxypropylcellulose) (HPC)",202 % of control and 212 % of control
same,T/C,"dose: 90.0 mg/kg/injection, schedule: Q01DX001 (ip), vehicle: Klucel (hydroxypropylcellulose) (HPC)",90 % of control
CCC(=O)O[C@H]1CC[C@H]2[C@@H]3CCC4=CC(=O)CC[C@]4(C)[C@H]3CC[C@]12C,T/C,[4],99 % of control
same,T/C,[5],116 % of control
same,T/C,[6],111 % of control
same,T/C,"dose: 64.0 mg/kg/injection, schedule: Q01DX009 (ip), vehicle: Klucel (hydroxypropylcellulose) (HPC)",99 % of control
same,T/C,"dose: 128.0 mg/kg/injection, schedule: Q01DX009 (ip), vehicle: Klucel (hydroxypropylcellulose) (HPC)",123 % of control
same,T/C,"dose: 256.0 mg/kg/injection, schedule: Q01DX009 (ip), vehicle: Klucel (hydroxypropylcellulose) (HPC)",97 % of control
same,T/C,"dose: 512.0 mg/kg/injection, schedule: Q01DX009 (ip), vehicle: Klucel (hydroxypropylcellulose) (HPC)",104 % of control
Cc1ncc(CNC(=O)N(CCCl)N=O)c(N)n1,T/C,"dose: 12.5 mg/kg/injection, schedule: Q01DX009 (ip), vehicle: Klucel (hydroxypropylcellulose) (HPC)",179 % of control
same,T/C,"dose: 25.0 mg/kg/injection, schedule: Q01DX009 (ip), vehicle: Klucel (hydroxypropylcellulose) (HPC)",105 % of control
O=C1C(N2CC2)=C(N2CC2)C(=O)C(N2CC2)=C1N1CC1,T/C,"dose: 10.0 micrograms/kg/injection, schedule: Q01DX009 (ip), vehicle: saline",120 % of control
same,T/C,"dose: 20.0 micrograms/kg/injection, schedule: Q01DX009 (ip), vehicle: saline",107 % of control
same,T/C,"dose: 80.0 micrograms/kg/injection, schedule: Q01DX009 (ip), vehicle: saline",95 % of control
